Biological target: T1, NKCC1 (Homo sapiens, UniProt P55011)
T1 construct: endogenous in cells; host or cells: native HEK293 cells
T1 sequence (P55011 1-1212): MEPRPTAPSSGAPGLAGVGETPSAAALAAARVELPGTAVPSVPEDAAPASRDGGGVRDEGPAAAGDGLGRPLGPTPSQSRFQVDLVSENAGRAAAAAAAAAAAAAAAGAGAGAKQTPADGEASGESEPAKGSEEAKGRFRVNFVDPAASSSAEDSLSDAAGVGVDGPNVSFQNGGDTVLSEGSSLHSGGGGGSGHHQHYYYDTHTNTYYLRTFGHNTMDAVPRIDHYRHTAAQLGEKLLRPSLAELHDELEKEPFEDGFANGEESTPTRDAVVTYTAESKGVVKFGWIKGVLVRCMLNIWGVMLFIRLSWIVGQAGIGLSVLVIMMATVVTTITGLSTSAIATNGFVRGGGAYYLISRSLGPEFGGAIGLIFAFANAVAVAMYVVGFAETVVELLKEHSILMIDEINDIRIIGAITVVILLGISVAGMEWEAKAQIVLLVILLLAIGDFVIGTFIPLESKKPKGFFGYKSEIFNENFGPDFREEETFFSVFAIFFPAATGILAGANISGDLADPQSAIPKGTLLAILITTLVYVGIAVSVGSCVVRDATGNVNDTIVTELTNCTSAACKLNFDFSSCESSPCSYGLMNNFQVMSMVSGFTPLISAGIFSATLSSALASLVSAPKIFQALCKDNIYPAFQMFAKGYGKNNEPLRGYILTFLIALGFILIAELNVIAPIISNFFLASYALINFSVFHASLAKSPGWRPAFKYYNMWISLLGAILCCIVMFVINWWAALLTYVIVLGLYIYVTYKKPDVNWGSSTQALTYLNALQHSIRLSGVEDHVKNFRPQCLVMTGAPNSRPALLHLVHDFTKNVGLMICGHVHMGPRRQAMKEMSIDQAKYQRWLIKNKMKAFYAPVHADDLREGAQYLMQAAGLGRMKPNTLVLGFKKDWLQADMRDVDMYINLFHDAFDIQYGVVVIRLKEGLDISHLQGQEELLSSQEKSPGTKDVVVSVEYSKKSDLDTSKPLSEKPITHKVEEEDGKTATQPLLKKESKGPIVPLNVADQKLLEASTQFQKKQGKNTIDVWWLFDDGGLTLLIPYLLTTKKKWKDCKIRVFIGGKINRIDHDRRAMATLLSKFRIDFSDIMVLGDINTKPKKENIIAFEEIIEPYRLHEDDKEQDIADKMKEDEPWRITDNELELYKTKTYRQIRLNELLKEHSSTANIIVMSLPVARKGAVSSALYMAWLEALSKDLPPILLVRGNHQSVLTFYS
Assay: NKCC1-mediated K+ influx (83Rb tracer uptake) in native HEK293 cells, hypertonic saline, 100 μM ouabain
Type: cell-based
Settings: for inhibition at 2 µM / inhibition at 20 µM: HEK293, no drug = 1000, 20 μM bumetanide = 0; for inhibition at 2 µM: read-out: NKCC1 mediated flux inhibition at 2 μM (%); for inhibition at 20 µM: read-out: NKCC1 mediated flux inhibition at 20 μM (%)
From the text: The compounds of the invention have been tested for evaluating their potency in inhibiting the NKCC1 channel. The test used is a cellular assay expressing the NKCC1 channel: HEK293 cells are human cells derived from embryonic kidney. The inhibitory activity of the compounds has been evaluated in measuring the modification of the potassium flux at 2 concentrations, as described hereafter in the biological protocol.
HEK293 cells are human cells derived from embryonic kidney. They express at their plasma membranes proteins that transport potassium (K^+). Among these proteins is the Na—K-2Cl cotransporter or NKCC1. This transporter contributes to 40-50% of K^+ influx into the cells. The remaining of K^+ transport is mediated by the Na^+/K^+-ATPase (also known as Na^+ pump or Na^+/K^+ pump), which also contributes some 40-50% of the influx basal flux of 5-10%, which is mainly due to K^+ channels (FIG. 1A). Thus, the HEK293 cell in culture is an ideal model to study the function of NKCC1 and test compounds that inhibits its transport.
The assay to measure NKCC1 function was optimized to obtain the next signal to noise ratio: • a. A slightly hypertonic saline was used to stimulate NKCC1 function. […] By consistent use of this simple manipulation, the NKCC1 signal was enhanced. • b. Ouabain, an inhibitor of the Na^+/K^+ pump, was used at 100 μM. […] A radioactive isotope was used to trace the inward movement of K^+ into the cell (influx). This allowed for highly precise measurements of K^+ influx. Because radioactive isotopes of K^+ had very short half-lives, radioactive isotopes of Rb^+ were used. Rubidium was a monovalent cation which was readily transporter at the K^+ binding site by many transporters and channels. Rb^+ was a congener of K^+, being transported undistinguishably from K^+. ^83Rb (half-life of 83 days) was used since ^86Rb (half-life of 19.6 days) is no longer commercially available. The ^83Rb isotope was used as a tracer, i.e. at a very low amounts to trace the movement of K^+.
K^+ influx measured in native HEK293 was in the range of 7000-9000 pmoles K^+ per mg protein per min. In the presence of 20 μM Ref 1, the flux was reduced to 600-900 pmoles K^+ per mg protein per min. Thus, there was a very solid dynamic range. In each experiment, the flux without Ref 1 was set at 1000 (equivalent to 100.0%) and the flux with 20 μM bumetanide was set at 0 (equivalent to 0%).
For the flux experiments, 35-mm culture dishes were coated with 0.1 mg/mL poly-L-lysine and placed in large 20×20 [square] dishes. For convenience, the poly-L-lysine was placed in the dishes the day before the experiment. Before plating the cells, the poly-L-lysine was aspirated, and each dish washed twice with 1 mL sterile water. Cells from 3 confluent 10-cm dishes were detached with trypsin and resuspended into 49 mL complete medium. Cells (2 mL/35-mm dish) were plated in 24 dishes and allowed to attach for at least 2 hours prior to the flux. This setup allowed the measurement of 8 conditions in triplicates. For the flux, culture medium was aspirated and replaced with 1 mL saline for a preincubation period of 15 min. The saline was aspirated and replaced with 1 mL identical saline containing 0.25 μCi/mL 83Rb for 15 min. Following the uptake period, the radioactive solution was aspirated, and the cells washed 3 times with ice-cold saline. Cells were then lyzed with 500 μl 0.25N NaOH for 1 hour, neutralized with 250 μL glacial acetic acid and 300 μL and 30 μL aliquots were used for μ-scintillation counting and protein assays, respectively. Two 5 μL of each flux solution was used to determine cpm and relate those cpm to nmoles K^+. Potassium influx was expressed in nmoles K^+ per mg protein per min. Note that within an experiment, groups of 3 dishes were separated 2 min apart for easy handling. Also note that since all dishes were plated with a homogeneous cell suspension, and all dishes were identical, the protein content was measured from a subset of dishes. […]

inhibition at 2 µM [%]	inhibition at 20 µM [%]	Compound	effect on flux not mediated by the cotransporter (100 μM, inhibitor of the Na+/K+ pump)
30 to 50	10 to 30	CCCCNc1cc(C(=O)OC)cc(S(=N)(=O)Nc2cccnc2)c1Oc1ccccc1 (stereo not shown) [Compound 16, methyl 3-(butylamino)-4-phenoxy-5-[(3-pyridylamino)sulfonimidoyl]benzoate]	–
10 to 30	50 to 75	CCCCNc1cc(C(=O)O)cc(S(=N)(=O)Nc2ncccn2)c1Oc1ccccc1 (stereo not shown) [Compound 76, 3-(butylamino)-4-phenoxy-5-[(pyrimidin-2-ylamino)sulfonimidoyl]benzoic acid]	–
50 to 75	≥ 75	CCCCNc1cc(C(=O)O)cc(S(=N)(=O)Nc2cccc(OC)c2)c1Oc1ccccc1 (stereo not shown) [Compound 65, 3-(butylamino)-5-[(3-methoxyanilino)sulfonimidoyl]-4-phenoxy-benzoic acid]	–
30 to 50	10 to 30	CCCCNc1cc(C(=O)NCCOC)cc(S(=N)(=O)N2Cc3ccccc3C2)c1Oc1ccccc1 (stereo not shown) [Compound 114, 3-(butylamino)-5-(isoindolin-2-ylsulfonimidoyl)-N-(2-methoxyethyl)-4-phenoxy-benzamide]	–
30 to 50	≥ 75	CCCCNc1cc(C(=O)O)cc(S(=N)(=O)N2CCCCC2)c1Oc1ccccc1 (stereo not shown) [Compound 54, 3-(butylamino)-4-phenoxy-5-(1-piperidylsulfonimidoyl)benzoic acid]	–
–	30 to 50	CCCCNc1cc(C(=O)OC)cc(S(=N)(=O)Nc2ccccn2)c1Oc1ccccc1 (stereo not shown) [Compound 41, methyl 3-(butylamino)-4-phenoxy-5-[(2-pyridylamino)sulfonimidoyl]benzoate]	–
–	10 to 30	CCCCNc1cc(C(=O)OC)cc(S(=N)(=O)NCC2CCOCC2)c1Oc1ccccc1 (stereo not shown) [Compound 13, methyl 3-(butylamino)-4-phenoxy-5-[(tetrahydropyran-4-ylmethylamino)sulfonimidoyl]benzoate]	–
50 to 75	≥ 75	CCCCNc1cc(C(=O)O)cc(S(=N)(=O)NCc2ccn(C)n2)c1Oc1ccccc1 (stereo not shown) [Compound 87, 3-(butylamino)-5-[[(1-methylpyrazol-3-yl)methylamino]sulfonimidoyl]-4-phenoxy-benzoic acid]	–
≥ 75	≥ 75	CCCCNc1cc(C(=O)O)cc(S(=O)(=O)Nc2ccccc2)c1Oc1ccccc1 [Compound 125, 3-(butylamino)-4-phenoxy-5-(phenylsulfamoyl)benzoic acid]	–
30 to 50	10 to 30	CCCCNc1cc(C(=O)OC)cc(S(=O)(=Nc2ccccc2)N2CCCCCC2)c1Oc1ccccc1 (stereo not drawn) [Compound 99, methyl 3-[S-(azepan-1-yl)-N-phenyl-sulfonimidoyl]-5-(butylamino)-4-phenoxy-benzoate]	–
30 to 50	30 to 50	CCCCNc1cc(C(=O)O)cc(S(=N)(=O)NC2CN3CCC2CC3)c1Oc1ccccc1 (stereo not shown) [Compound 96, 3-(butylamino)-4-phenoxy-5-[(quinuclidin-3-ylamino)sulfonimidoyl]benzoic acid]	–

More lines, now with the values behind:

Compound	inhibition at 2 µM [%]	inhibition at 20 µM [%]	effect on flux not mediated by the cotransporter (100 μM, inhibitor of the Na+/K+ pump)
CCCCNc1cc(C(=O)O)cc(S(=N)(=O)Nc2ccccn2)c1Oc1ccccc1 (stereo not shown) [Compound 89, 3-(butylamino)-4-phenoxy-5-[(2-pyridylamino)sulfonimidoyl]benzoic acid]	30 to 50	≥ 75	–
CCCCNc1cc(C(=O)OC)cc(S(=N)(=O)NCc2nccs2)c1Oc1ccccc1 (stereo not shown) [Compound 38, methyl 3-(butylamino)-4-phenoxy-5-[(thiazol-2-ylmethylamino)sulfonimidoyl]benzoate]	–	10 to 30	–
CCCCNc1cc(C(=O)O)cc(S(=N)(=O)NCCc2cccc(Cl)c2)c1Oc1ccccc1 (stereo not shown) [Compound 82, 3-(butylamino)-5-[[2-(3-chlorophenyl)ethylamino]sulfonimidoyl]-4-phenoxy-benzoic acid]	10 to 30	≥ 75	–
CCCCNc1cc(C(=O)OC)cc(S(=N)(=O)Nc2ccccc2Cl)c1Oc1ccccc1 (stereo not shown) [Compound 26, methyl 3-(butylamino)-5-[(2-chloroanilino)sulfonimidoyl]-4-phenoxy-benzoate]	–	10 to 30	–
CCCCNc1cc(C(=O)NCCC(F)(F)F)cc(S(=N)(=O)Nc2ccccc2)c1Oc1ccccc1 (stereo not shown) [Compound 120, 3-(anilinosulfonimidoyl)-5-(butylamino)-4-phenoxy-N-(3,3,3-trifluoropropyl)benzamide]	30 to 50	30 to 50	–
CCCCNc1cc(C(=O)OC)cc(S(=N)(=O)Nc2nccn2C)c1Oc1ccccc1 (stereo not shown) [Compound 40, methyl 3-(butylamino)-5-[[(1-methylimidazol-2-yl)amino]sulfonimidoyl]-4-phenoxy-benzoate]	–	30 to 50	–
CCCCNc1cc(C(=O)OC)cc(S(=N)(=O)NCc2ccccc2)c1Oc1ccccc1 (stereo not shown) [Compound 8, methyl 3-[(benzylamino)sulfonimidoyl]-5-(butylamino)-4-phenoxy-benzoate]	10 to 30	50 to 75	–
CCCCNc1cc(C(=O)OC)cc(S(=N)(=O)Nc2ccncc2)c1Oc1ccccc1 (stereo not shown) [Compound 44, methyl 3-(butylamino)-4-phenoxy-5-[(4-pyridylamino)sulfonimidoyl]benzoate]	30 to 50	10 to 30	–
C[C@@H]1O[C@@H](O[C@H]2C[C@@H](O)[C@]3(CO)[C@H]4[C@H](O)C[C@]5(C)[C@@H](C6=CC(=O)OC6)CC[C@]5(O)[C@@H]4CC[C@]3(O)C2)[C@H](O)[C@H](O)[C@H]1O [Ouabain, ouabain, reference compound]	–	–	greatly reduced the flux not mediated by the cotransporter

Source: patent US20260374782A1, “NEW COMPOUNDS, PROCESSES FOR PREPARING THE SAME AND THEIR USE AS DRUGS” (B&A ONCOMEDICAL, priority 2022, published 2026)
